Like-named read-outs stand apart in the source and are kept apart here.
Legend:
OR2M3 = target: T1, OR2M3 (Homo sapiens, UniProt Q8NG83); test: hOR assay (GloSensor cAMP luciferase), dose-response; format: cell-based; details: OR2M3/pHEK plasmid
T1 construct: Lucy tag (N); expressed in transfected cells; host or cells: Flp-In T-REx-293 cells stably expressing RTP1S, Gαolf and Ric8-b
T1 sequence (Q8NG83 1-312): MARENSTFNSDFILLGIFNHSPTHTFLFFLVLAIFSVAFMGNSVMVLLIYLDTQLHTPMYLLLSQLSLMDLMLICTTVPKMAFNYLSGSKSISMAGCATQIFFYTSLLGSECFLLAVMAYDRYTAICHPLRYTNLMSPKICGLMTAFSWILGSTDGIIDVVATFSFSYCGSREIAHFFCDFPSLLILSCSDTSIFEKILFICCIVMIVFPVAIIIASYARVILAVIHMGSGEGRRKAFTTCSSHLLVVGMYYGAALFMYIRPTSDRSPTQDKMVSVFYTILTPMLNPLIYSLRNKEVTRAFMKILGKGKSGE
Description: (§1) Flp-In T-REx-293 cells stably expressing accessory proteins (RTP1S, Gαolf, and Ric8-b) were established using the Flp-In T-REx system. Accessory proteins-expressing cells were maintained in high-glucose Dulbecco’s modified Eagle medium (Sigma-Aldrich) containing 10% fetal bovine serum (Biowest) and 1% antibiotic–antimycotic (Nacalai tesque) at 37°C with 5% CO2.
(§2) The GloSensor™ Technology (Promega) was used for the luciferase assay of the hOR response. As the negative control, cells that were transfected by the pBApo-CMV neo vector and pHEK293 Ultra Expression Vector I were used as mock cells. hOR/pHEK and hOR/pBApo (50 ng/well) were transfected into the accessory proteins-expressing cell line (40000 cells/well) using Lipofectamine 2000 (Thermo Fisher Scientific) (400 nL/well) along with pGlosensor™-22F cAMP biosensor plasmid (Promega) (50 ng/well) in a 96-well plate. At 28 h posttransfection, the cells were washed with an assay buffer (140 mM NaCl, 10 mM HEPES, 5 mM KCl, 1 mM CaCl2・2H2O, 10 mM D-glucose, pH 7.5) and replaced with the assay buffer (50 μL/well) containing 2% GloSensor cAMP substrate and preincubated for 1 h at 25°C. Then, the assay buffer was added (130 μL/well). After 10 min of equilibration, the luminescence was measured (L0). Odorants diluted in 10% DMSO/assay buffer were treated (20 μL/well). After 9 min, the luminescence was measured (L9min). First, all the L9min values were subtracted by the L0 value (ΔL) and divided by the L0 value (ΔL/L0). The concentration range of the odorants was different for each odorant, but the minimum was 0.01 μM and the maximum was 3 mM. For all hORs, luciferase assays with hOR/pBApo and hOR/pHEK were conducted in the same 96-well plate each time, and luminescence was normalized to a maximum value of 100. Dose–response curve images were graphed using the Graph Pad Prism 9 software (Graph Pad Software).

OR1A1 = target: T2, OR1A1 (Homo sapiens, UniProt Q9P1Q5); test: as above; format: cell-based; details: for EC50: read-out: EC50 value; for top value of OR1A1 dose-response curve: luminescence normalized to a maximum value of 100
T2 construct: Lucy tag (N); FLAG (N); Rho tag (N); expressed in transfected cells; host or cells: Flp-In T-REx-293 cells stably expressing RTP1S, Gαolf and Ric8-b
T2 sequence (Q9P1Q5 1-309): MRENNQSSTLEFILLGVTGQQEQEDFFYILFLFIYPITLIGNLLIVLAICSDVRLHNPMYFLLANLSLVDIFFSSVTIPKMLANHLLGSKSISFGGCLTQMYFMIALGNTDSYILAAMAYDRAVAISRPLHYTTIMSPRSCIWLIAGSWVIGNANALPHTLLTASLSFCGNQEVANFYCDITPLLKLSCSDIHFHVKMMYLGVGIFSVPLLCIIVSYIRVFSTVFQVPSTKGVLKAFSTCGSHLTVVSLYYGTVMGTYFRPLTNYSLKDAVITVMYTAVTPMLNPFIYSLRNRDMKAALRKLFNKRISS
Description: as §1, §2

EC50 (OR2M3) | response of HiBiT-tagged OR1A1 (OR1A1; OR1A1 with the HiBiT tag (S1 Fig)) | EC50 (OR1A1; OR1A1 with the TAR-Tat system (OR1A1/pHEK)) | EC50 (OR1A1; OR1A1 without the TAR-Tat system (OR1A1/pBApo)) | top value of OR1A1 dose-response curve (OR1A1; with the TAR-Tat system (OR1A1/pHEK)) | top value of OR1A1 dose-response curve (OR1A1; without the TAR-Tat system (OR1A1/pBApo)) | Compound
159 nM | – | – | – | – | – | CCC(S)C(C)CO (stereo not drawn) [3-mercapto-2-methyl-1-pentanol]
– | a dose-dependent response was detected | 905 nM | 4400 nM | 90.4 | 53.9 | C=C(C)[C@H]1CC=C(C)C(=O)C1 [(+)-carvone]

Reference: article PMC11198769, “Enhancement of transcription efficiency by TAR-Tat system increases the functional expression of human olfactory receptors” (PLOS ONE, 2024)
